What was measured:
TERT expression = TERT expression by qRT-PCR in human cancer cell lines treated with inhibitors; type: cell-based; conditions: 0.2 uM AZD6244, 24 hours
Protocol: (§1) FIG. 2A-2G. BRAF V600E/MAPK pathway regulated TERT expression. (FIG. 2A) TERT expression was analyzed by qRT-PCR in cells treated with 0.5 uM PLX4032 or 0.2 uM AZD6244 for 24 hours (upper panel). The corresponding levels of phosphorylated ERK (p-ERK), total ERK (t-ERK), and beta-actin were detected by Western blotting (lower panel). The relative TERT mRNA expression levels were normalized to the DMSO control group. (FIG. 2B) Luciferase reporting assay of TERT promoter activities in K1 cells treated with DMSO or PLX4032 (0.5 uM). (FIG. 2C, 2D) Specific shRNA against BRAF were used to knock down BRAF in thyroid cancer cell lines BCPAP and K1 and melanoma cell line A375. Scramble shRNA was used as control. Cells were then subjected to Western blotting (FIG. 2C) and qRT-PCR (FIG. 2D). (FIG. 2E) Sequencing of the BRAF exon-15 in the parental and heterozygous BRAF-V600E knock-in SW48 cells. BRAF V600E was knocked in on one allele of BRAF by rAAV technology through homologous recombination and Cre recombinase of the Neo cassette. (FIG. 2F) Western blotting analyses of phosphorylation of ERK (p-ERK), total ERK (t-ERK), BRAF, and beta-actin in the parental and BRAF-V600E knock-in SW48 cells. (FIG. 2G) TERT promoter luciferase reporter assay in SW48 cells with/without BRAF V600E knock-in. **P<0.01, ***P<0.001, by 2-tailed Student's t test. P values are for the comparison of the indicated condition with DMSO (FIG. 2B), scramble (FIG. 2D), or BRAF-WT groups (FIG. 2G). All the values represent the average standard deviation (SD) of triplicate samples from a typical experiment. All the experiments were performed three times with similar results.
FIG. 3A-3C. MYC regulated TERT expression in a TERT promoter mutation-independent manner. (FIG. 3A) The four indicated cancer cell lines harboring BRAF V600E mutation were treated with 0.5 uM PLX4032 and/or 10 nM MYC-specific siRNA (siMYC) for 24 hours, which were then subjected to Western blotting (upper panel) and qRT-PCR (lower panel). The relative TERT mRNA expression was normalized to the control group. (FIG. 3B, 3C) Parental and BRAF V600E knock-in SW48 cells were treated with control siRNA (siControl) or MYC-specific siRNA (siMYC, 10 nM) for 48 h, followed by Western blotting (FIG. 3B) and luciferase reporter assays (FIG. 3C). *P<0.05, **P<0.01, ***P<0.001, by 2-tailed Student's t test. n.s., not significant. All the values represent the average standard deviation (SD) of triplicate samples from a typical experiment. Similar results were obtained in two additional independent experiments.
FIG. 9A-9B. Summarized effects of PLX4032 (FIG. 9A) and AZD6244 (FIG. 9B) on TERT mRNA expression. Each bar represents the average+SD of the cells with the same genotypes as follows: BRAF-mut and TERT-mut cell lines: BCPAP, K1, OCUT1, A375, and M14; BRAF-mut and TERT-wt cell lines: SK-MEL-1, SK-MEL-3, and RKO; BRAF-wt and TERT-mut cell lines: TPC1, KAT18, C643, CHL-1, SK-MEL-2, and Mewo; BRAF-wt and TERT-wt cell lines: FB1, WRO, and HTORI3. Compared with the corresponding control of DMSO, **P<0.01, ***P<0.001, by independent t-test.
The BRAF V600E-specific inhibitor PLX4032 (#S1267) and the MEK1 inhibitor AZD6244 (#S1008) were purchased from Selleck Chemicals (Houston, TX), dissolved in DMSO with a stock concentration of 10 mM and stored at −20° C. PLX4032 and AZD6244 were used to treat cells for 24 hours at 0.5 μM and 0.2 μM, respectively, where indicated in the manuscript. DMSO was used as the vehicle control.
Total RNA was extracted from cultured cells using the TRIzol reagent (#15596-018; Ambion, Life Technologies, Carlsbad, CA) and reverse-transcribed to cDNA using the SuperScript III First-Strand Synthesis System (#18080-051; Invitrogen, Life Technologies, Carlsbad, CA). Gene expression was analyzed in triplicate using FastStart Universal SYBR Green Master with ROX (#04913850001; Roche Applied Science, Indianapolis, IN) on the Applied Biosystems 7900HT Fast Real-Time PCR System. […]

ERK phosphorylation = test: Western blotting of phosphorylated ERK in inhibitor-treated cells; type: cell-based, human; conditions: cells harboring wild-type BRAF; 0.2 uM AZD6244, 24 hours
Protocol: as §1, with “results. […]” for “results.”
Cells were lysed in the RIPA buffer (#sc-24948; Santa Cruz Biotechnology, Santa Cruz, CA) with protease inhibitor cocktail (#P8340; Sigma-Aldrich) and phosphatase inhibitor cocktail (#P0044; Sigma-Aldrich) and Western blotting analysis was performed as we previously described^54. […] Signals were detected by SuperSignal™ West Pico PLUS Chemiluminescent Substrate (#34579; Thermo Fisher Scientific). […]

SMILES: Cn1cnc2c(F)c(Nc3ccc(Br)cc3Cl)c(C(=O)NOCCO)cc21 [AZD6244]
- TERT expression (TERT expression; cells harboring BRAF V600E mutation): similarly inhibited TERT expression
- TERT expression (TERT expression; cells harboring wild-type BRAF, TERT promoter mutant versus wild-type): inhibited TERT expression more in those harboring TERT promoter mutations
- ERK phosphorylation (ERK phosphorylation): modest inhibitory effect

— patent US11911356B2, “Regulation of mutant TERT by BRAF V600E/map kinase pathway through FOS/GABP in human cancer” (THE JOHNS HOPKINS UNIVERSITY, priority 2017, dated 2024)
